“Also recorded” adds a separate entry of the source. Ends that are not written are not given here. * marks the point of attachment. Myristoyl = CCCCCCCCCCCCCC(=O)*
Experiments:
corneal wound in mice = assay: Alkali burning of mouse corneas with Silver Nitrate applicators; format: in vivo; conditions: 1 μg/ml; for wound healing compared to control (Formula 1): 3 times daily for 3 or 7 days; for inflammatory cells (lymphocytes) infiltration into the wound area / neutrophils recruitment to the corneal wound gap / pathological angiogenesis in corneal wound area / corneal re-epithelialization (wounds with full epidermal closure at 7 days post wounding) / pathological corneal swelling: three daily instillations, Formula 1 as control; for inflammatory cells (lymphocytes) infiltration into the wound area / neutrophils recruitment to the corneal wound gap / pathological angiogenesis in corneal wound area / pathological corneal swelling: 3 days; for inflammatory cells (lymphocytes) infiltration into the wound area: FIG. 31; for neutrophils recruitment to the corneal wound gap: FIG. 32; for pathological angiogenesis in corneal wound area: FIG. 33; for corneal re-epithelialization (wounds with full epidermal closure at 7 days post wounding): FIG. 30; for pathological corneal swelling: FIG. 34
Experimental: Mice were subjected to chemical alkali burn wounding (using Silver Nitrate applicators for 10 seconds). Eyes were treated by three daily ocular instillations of treatments during 7 successive days with DAP-1 1 μg/ml, DIP-1 1 μg/ml and EPIP-2 1 μg/ml or with Formula 1 as control. Percentage of wounds achieved full epidermal closure at 7 days post wounding.
FIG. 31 is a histogram showing that DAP-1 1 μg/ml and DIP-1 1 μg/ml reduce lymphocytes infiltration in corneal wound gap in mice. Mice were subjected to chemical alkali burn wounding (using Silver Nitrate applicators for 10 seconds). Eyes were treated by three daily ocular instillations of treatments during 3 successive days with DAP-1 1 μg/ml, DIP-1 1 μg/ml and EPIP-2 1 μg/ml or with Formula 1 as control. Histological H&E staining of the corneas wounded area was performed and lymphocytes infiltration was arbitrarily assessed.
FIG. 32 is a histogram showing that DAP-1 1 μg/ml and EPIP-2 1 μg/ml decrease neutrophils recruitment to the corneal wound gap in mice. Mice were subjected to chemical alkali burn wounding (using Silver Nitrate applicators for 10 seconds). Eyes were treated by three daily ocular instillations of treatments during 3 successive days with DAP-1 1 μg/ml, DIP-1 1 μg/ml and EPIP-2 1 μg/ml or with Formula 1 as control. Histological sections of […] were stained with specific neutrophil staining kit (according to manufacturer). Neutrophils were counted per fixed field ×200 and represented by arbitrary units.
Mice were subjected to chemical alkali burn wounding (using Silver Nitrate applicators for 10 seconds). Eyes were treated by three daily ocular instillations of treatments during 3 successive days with DAP-1 1 μg/ml, DIP-1 1 μg/ml and EPIP-2 1 μg/ml or with Formula 1 as control. Histological H&E staining of the corneas wounded area has been performed. Blood vessels in entire corneal area were assessed and the results are represented graphically in objective arbitrary units.
FIG. 34 is a histogram showing that DIP-1 1 μg/ml and EPIP-2 1 μg/ml decrease pathological swelling of wounded cornea in mice. Mice were subjected to chemical alkali burn wounding (using Silver Nitrate applicators for 10 seconds). Eyes were treated by three daily ocular instillations of treatments during 3 successive days with DAP-1 1 μg/ml, DIP-1 1 μg/ml and EPIP-2 1 μg/ml or with Formula 1 as control. Histological H&E staining of the corneas wounded area has been performed and corneal swelling was objectively assessed. The results are presented in arbitrary units. […]
In another experiment, Alkali burning of corneas was performed on anaesthetized mice using Silver Nitrate applicators (75% Silver nitrate, 25% Potassium nitrate, Grafco, GFCO Inc.) for 10 seconds. The eyes were irrigated immediately with 5 ml sterile saline. Eyes were treated 3 times daily for 3 or 7 days with DAP-1 1 μg/ml, DIP-1 1 μg/ml and EPIP-2 1 μg/ml or Formula 1 as control.

[1] = system: ICAM-1 expression on endothelial cells and keratinocytes; macrophages, neutrophiles and T-cells at inflammation site; assay: Anti-inflammatory effect of MPDY-1 in various in-vitro, ex-vivo and in-vivo models
Description: This example discusses experiments showing the anti-inflammatory effect of MPDY-1.

[2] = system: rabbit eyes subject to mechanical corneal wounding; assay: Mechanical corneal wounding in rabbit eyes, corneal erosion area by fluorescein staining; format: in vivo
Experimental: Mechanical Corneal Ulcer Formation: A 6 mm corneal trephine (Grieshaber, Switzerland), preset for 50 micrometer in depth and a miniblade were used under a surgical microscope, to perform a uniform central corneal epithelial erosions, 6 mm in diameter and 50 micrometer in depth.
Rabbits were subjected to mechanical corneal wounding following the protocol discussed above. Eyes were treated by two daily ocular instillations of treatments during 3 successive days. Fluorescein staining was used to measure the corneal erosion area at twelve hours intervals starting 24 hrs post wounding and up to 72 hrs.
In addition to the time to heal parameter which is routinely assessed in wound healing studies, several publications established the importance of a new parameter, 50% reduction in wound size to serve as a robust predictor of complete wound closure. […] Results were therefore analyzed as percentage of eyes with 50% closure or higher at 24 hr post wounding (FIG. 2).
Rabbits were subjected to mechanical corneal wounding as discussed in Example 1. Eyes were treated by two daily ocular instillations of treatments during 3 successive days. Fluorescein staining was used to measure the corneal erosion area at six hours intervals.
Additional experiments were conducted using varying dosages of active agent. Rabbits were subjected to mechanical corneal wounding as described above. Eyes were treated by two daily ocular instillations of treatments during 3 successive days with 0.1 or 0.5 μg/eye/treatment of MPDY-1 alone in HOB-10 (referred to as HO/05/09) or in BSS or in combination with insulin 0.1-0.5 μg/eye/treatment. Rabbits received a total of daily dose from 0.1 μg (1 μg/ml) and up to 2 μg (20 μg/ml). Fluorescein staining was used to measure the corneal erosion area at twelve hours intervals starting 24 hrs post wounding and up to 72 hr.
Rabbits were subjected to mechanical corneal wounding as described above. […]

| Substance | wound healing compared to control (Formula 1) (corneal wound in mice) | inflammatory cells (lymphocytes) infiltration into the wound area (corneal wound in mice) | neutrophils recruitment to the corneal wound gap (corneal wound in mice) | pathological angiogenesis in corneal wound area (corneal wound in mice) | corneal re-epithelialization (wounds with full epidermal closure at 7 days post wounding) (corneal wound in mice) | pathological corneal swelling (corneal wound in mice) | ICAM-1 expression on endothelial cells and keratinocytes [1] | activation of macrophages at inflammation site [1] | macrophages, neutrophiles and T-cells infiltration into inflammation site [1] | eyes completely healed without ocular scarring (full closure) at 48 hr post wounding ([2]; 48 hr, MPDY-1 0.1 or 0.5 μg/eye/treatment, two daily instillations, FIG. 11) [%] | time within which all treated eyes reached full closure ([2]; post wounding, FIG. 11) [h] | closure of ocular injury at 24 h post wounding ([2]; versus Control (standard of care ocular buffer), two daily instillations, FIG. 9) [%] |
| --- | --- | --- | --- | --- | --- | --- | --- | --- | --- | --- | --- | --- |
| H-Met-Arg-Ala-Ala-Glu-Ala-Ala-Ala-Ala-Glu-Pro-Met-OH (H-MRAAEAAAAEPM-OH) [DAP-1] | wound healing enhancement | excelled in reducing inflammatory cells infiltration into the wound area | more potent in decreasing specific neutrophils recruitment | reduce angiogenesis in corneal wound gap | promote re-epithelialization of corneal wound |  |  |  |  |  |  |  |
| H-Pro-Tyr-Ile-Ala-Leu-Asn-Val-Asp-OH (H-PYIALNVD-OH) [EPIP-2] | wound healing enhancement |  | more potent in decreasing specific neutrophils recruitment | reduce angiogenesis in corneal wound gap | promote re-epithelialization of corneal wound | normalization in pathological corneal swelling |  |  |  |  |  |  |
| MPDY-1: N-myristoylated peptide defined by SEQ ID NO: 2 (Phe-Ala-Arg-Lys-Gly-Ala-Leu-Arg-Gln), PKC-α inhibitor; tested in BSS (Myristoyl-FARKGALRQ) |  |  |  |  |  |  | attenuate ICAM-1 expression on endothelial cells and keratinocytes | attenuate activation of macrophages at inflammation site | inhibit macrophages, neutrophiles and T-cells infiltration into inflammation site | 30 | ≤ 72 | 60 |
| Myristoyl-Ser-Phe-Asn-Ser-Tyr-Glu-Leu-Gly-Ser-Leu-OH (Myristoyl-SFNSYELGSL-OH; SMILES CCCCCCCCCCCCCC(=O)N[C@@H](CO)C(=O)N[C@@H](Cc1ccccc1)C(=O)N[C@@H](CC(N)=O)C(=O)N[C@@H](CO)C(=O)N[C@@H](Cc1ccc(O)cc1)C(=O)N[C@@H](CCC(=O)O)C(=O)N[C@@H](CC(C)C)C(=O)NCC(=O)N[C@@H](CO)C(=O)N[C@@H](CC(C)C)C(=O)O) [DIP-1] | wound healing enhancement | excelled in reducing inflammatory cells infiltration into the wound area |  | reduce angiogenesis in corneal wound gap | more potent; also recorded: promote re-epithelialization of corneal wound | normalization in pathological corneal swelling |  |  |  |  |  |  |
